pEC50, pIC50: −log10 of the molar value.
Tests used:
[1] = molecular target: T1, purified recombinant human GAC (GLS1) (Homo sapiens, UniProt O94925); assay: GLS1 Enzymatic Activity Assay (dual-coupled enzymatic assay); assay type: biochemical
T1 sequence (O94925 55-598 isoform O94925-3 limits assumed): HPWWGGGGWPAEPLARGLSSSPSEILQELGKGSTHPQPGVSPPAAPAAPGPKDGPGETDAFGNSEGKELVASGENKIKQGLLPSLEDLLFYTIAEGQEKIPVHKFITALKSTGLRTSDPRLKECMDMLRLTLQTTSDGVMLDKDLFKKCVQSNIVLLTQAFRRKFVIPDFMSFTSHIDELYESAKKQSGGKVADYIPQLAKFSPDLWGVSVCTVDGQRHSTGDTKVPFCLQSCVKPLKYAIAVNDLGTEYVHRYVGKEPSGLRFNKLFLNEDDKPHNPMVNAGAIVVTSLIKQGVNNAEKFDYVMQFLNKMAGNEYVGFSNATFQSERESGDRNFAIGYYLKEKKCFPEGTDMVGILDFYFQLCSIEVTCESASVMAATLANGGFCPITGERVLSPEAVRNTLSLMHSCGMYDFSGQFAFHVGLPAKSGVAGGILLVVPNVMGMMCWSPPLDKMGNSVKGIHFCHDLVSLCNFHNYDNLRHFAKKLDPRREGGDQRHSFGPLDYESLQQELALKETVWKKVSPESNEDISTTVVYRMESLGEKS
Experimental: GLS1 Enzymatic Activity Assay
The inhibition of purified recombinant human GAC by varying concentrations of inhibitors is assessed via a dual-coupled enzymatic assay. The glutamate produced by the glutaminase reaction is used by glutamate oxidase to produce α-ketoglutarate, ammonia, and hydrogen peroxide, with this hydrogen peroxide subsequently being used by horseradish peroxidase to produce resorufin in the presence of Amplex UltraRed. The assay buffer consisted of 50 mM Hepes (pH 7.4), 0.25 mM EDTA and 0.1 mM Triton X-100. GAC was incubated with potassium phosphate (10 minutes at room temperature) prior to incubation with inhibitor (10 minutes at room temperature). The final reaction conditions were as follows: 2 nM GAC, 50 mM potassium phosphate, 100 mU/mL glutamate oxidase (Sigma), 1 mM glutamine (Sigma), 100 mU/mL horseradish peroxidase (Sigma), 75 μM Amplex UltraRed (Life Technologies), and 1% (v/v) DMSO. The production of resorufin was monitored on a Perkin Elmer Envision plate reader (excitation 530 nm, emission 590 nm) either in a kinetics or endpoint mode (at 20 minutes). IC50 values were calculated using a four-parameter logistic curve fit.

[2] = test system: A549 cells; assay: Proliferation Assay (A549 cell viability, Cell Titer Fluor); assay type: cell-based; details: Homo sapiens, 72 hours
Experimental: A549 cells were routinely maintained in RPMI 1640 media (Gibco catalog number 11875-093) supplemented with 10% dialyzed fetal bovine serum using a humidified incubator (37° C., 5% CO2 and ambient O2). In preparation for the viability assay, cells were inoculated into 384-well black CulturPlates (Perkin Elmer) at a density of 1000 cells/well in a volume of 40 uL. Following a 24-hour incubation at 37° C., 5% CO2 and ambient O2, cells were treated with compound (10 uL) in a final DMSO concentration of 0.5% (v/v). The microplates were then incubated for 72 hours (37° C., 5% CO2 and ambient O2). Cell Titer Fluor (Promega) was subsequently added (10 uL of 6× reagent) and mixed for 15 minutes at room temperature. The plates were then incubated for 30 minutes (37° C., 5% CO2 and ambient O2) and fluorescence was subsequently read on the Perkin Elmer Envision plate reader. EC50 values were calculated using a four-parameter logistic curve fit.

Row | SMILES | pIC50 [1] | pEC50 [2]
1 | Cc1cncc(CNC(=O)c2cn(CCCCc3cc4cc(C5CC5)[nH]c4nn3)nn2)c1 [Example 46, 1-(4-{6-cyclopropyl-7H-pyrrolo[2,3-c]pyridazin-3-yl}butyl)-N-[(5-methylpyridin-3-yl)methyl]-1H-1,2,3-triazole-4-carboxamide] | > 7.00 | 5.30 to 6.30
2 | Cc1ccncc1CNC(=O)c1cn(CCCCc2cc3cc(C4CC4)[nH]c3nn2)nn1 [Example 47, 1-(4-{6-cyclopropyl-7H-pyrrolo[2,3-c]pyridazin-3-yl}butyl)-N-[(4-methylpyridin-3-yl)methyl]-1H-1,2,3-triazole-4-carboxamide] | 6.30 to 7.00 | 5.30 to 6.30
3 | COc1cncc(CNC(=O)c2cn(CCCCc3cc4cc(C5CC5)[nH]c4nn3)nn2)c1 [Example 48, 1-(4-{6-cyclopropyl-7H-pyrrolo[2,3-c]pyridazin-3-yl}butyl)-N-[(5-methoxypyridin-3-yl)methyl]-1H-1,2,3-triazole-4-carboxamide] | > 7.00 | 5.30 to 6.30
4 | COc1ncccc1CNC(=O)c1cn(CCCCc2cc3cc(C4CC4)[nH]c3nn2)nn1 [Example 49, 1-(4-{6-cyclopropyl-7H-pyrrolo[2,3-c]pyridazin-3-yl}butyl)-N-[(2-methoxypyridin-3-yl)methyl]-1H-1,2,3-triazole-4-carboxamide] | 5.30 to 6.30 | 5.30 to 6.30
5 | Cc1cc(CNC(=O)c2cn(CCCCc3cc4cc(C5CC5)[nH]c4nn3)nn2)nn1C [Example 50, 1-(4-{6-cyclopropyl-7H-pyrrolo[2,3-c]pyridazin-3-yl}butyl)-N-[(1,5-dimethyl-1H-pyrazol-3-yl)methyl]-1H-1,2,3-triazole-4-carboxamide] | 6.30 to 7.00 | 5.30 to 6.30
6 | Cn1cc(CNC(=O)c2cn(CCCCc3cc4cc(C5CC5)[nH]c4nn3)nn2)cn1 [Example 51, 1-(4-{6-cyclopropyl-7H-pyrrolo[2,3-c]pyridazin-3-yl}butyl)-N-[(1-methyl-1H-pyrazol-4-yl)methyl]-1H-1,2,3-triazole-4-carboxamide] | 6.30 to 7.00 | 5.30 to 6.30
7 | Cn1ccc(CNC(=O)c2cn(CCCCc3cc4cc(C5CC5)[nH]c4nn3)nn2)n1 [Example 52, 1-(4-{6-cyclopropyl-7H-pyrrolo[2,3-c]pyridazin-3-yl}butyl)-N-[(1-methyl-1H-pyrazol-3-yl)methyl]-1H-1,2,3-triazole-4-carboxamide] | 6.30 to 7.00 | 5.30 to 6.30
8 | N#Cc1ccc(CNC(=O)c2cn(CCCCc3cc4cc(C5CC5)[nH]c4nn3)nn2)cn1 [Example 53, N-[(6-cyanopyridin-3-yl)methyl]-1-(4-{6-cyclopropyl-7H-pyrrolo[2,3-c]pyridazin-3-yl}butyl)-1H-1,2,3-triazole-4-carboxamide] | 6.30 to 7.00 | 5.30 to 6.30
9 | Cn1ccnc1CNC(=O)c1cn(CCCCc2cc3cc(C4CC4)[nH]c3nn2)nn1 [Example 54, 1-(4-{6-cyclopropyl-7H-pyrrolo[2,3-c]pyridazin-3-yl}butyl)-N-[(1-methyl-1H-imidazol-2-yl)methyl]-1H-1,2,3-triazole-4-carboxamide] | 5.30 to 6.30 | < 5.30
10 | Cc1cccc(CNC(=O)c2cn(CCCCc3cc4cc(C5CC5)[nH]c4nn3)nn2)n1 [Example 55, 1-(4-{6-cyclopropyl-7H-pyrrolo[2,3-c]pyridazin-3-yl}butyl)-N-[(6-methylpyridin-2-yl)methyl]-1H-1,2,3-triazole-4-carboxamide] | 6.30 to 7.00 | 5.30 to 6.30
11 | Cc1ccc(CNC(=O)c2cn(CCCCc3cc4cc(C5CC5)[nH]c4nn3)nn2)nc1 [Example 56, 1-(4-{6-cyclopropyl-7H-pyrrolo[2,3-c]pyridazin-3-yl}butyl)-N-[(5-methylpyridin-2-yl)methyl]-1H-1,2,3-triazole-4-carboxamide] | 6.30 to 7.00 | 5.30 to 6.30
12 | O=C(Cc1cccc(OC(F)(F)F)c1)Nc1nnc(CCCCc2cc3cc(Cc4ccccc4)[nH]c3nn2)s1 [Example 58, N-[5-(4-{6-benzyl-7H-pyrrolo[2,3-c]pyridazin-3-yl}butyl)-1,3,4-thiadiazol-2-yl]-2-[3-(trifluoromethoxy)phenyl]acetamide] | > 7.00 | 6.30 to 7.00
13 | CC(C)(C)OC(=O)NCc1cccc(CC(=O)Nc2nnc(CCCCc3cc4cc(Cc5ccccc5)[nH]c4nn3)s2)c1 [Example 59, tert-butyl N-{[3-({[5-(4-{6-benzyl-7H-pyrrolo[2,3-c]pyridazin-3-yl}butyl)-1,3,4-thiadiazol-2-yl]carbamoyl}methyl)phenyl]methyl}carbamate] | > 7.00 | > 7.00
14 | O=C(Nc1nnc(CCCCc2cc3cc(Cc4ccccc4)[nH]c3nn2)s1)[C@H](O)c1ccccc1 [Example 60, (2R)-N-[5-(4-(6-benzyl-7H-pyrrolo[2,3-c]pyridazin-3-yl}butyl)-1,3,4-thiadiazol-2-yl]-2-hydroxy-2-phenylacetamide] | > 7.00 | 5.30 to 6.30
15 | O=C(Nc1nnc(CCCCc2cc3cc(Cc4ccccc4)[nH]c3nn2)s1)OC1CCOCC1 [Example 61, oxan-4-yl N-[5-(4-{6-benzyl-7H-pyrrolo[2,3-c]pyridazin-3-yl}butyl)-1,3,4-thiadiazol-2-yl]carbamate] | > 7.00 | 5.30 to 6.30
16 | O=C(Cc1ccccc1)Nc1ccn(CCCCc2cc3cc(Cc4ccccc4)[nH]c3nn2)c(=O)n1 [Example 62, N-[1-(4-{6-benzyl-7H-pyrrolo[2,3-c]pyridazin-3-yl}butyl)-2-oxo-1,2-dihydropyrimidin-4-yl]-2-phenylacetamide] | > 7.00 | 5.30 to 6.30
17 | O=C(Cc1cccc(OC(F)(F)F)c1)Nc1nnc(CCCCc2cc3cc[nH]c3nn2)s1 [Example 63, N-[5-(4-{7H-pyrrolo[2,3-c]pyridazin-3-yl}butyl)-1,3,4-thiadiazol-2-yl]-2-[3-(trifluoromethoxy)phenyl]acetamide] | 6.30 to 7.00 | 5.30 to 6.30
18 | CC(C)CNC(=O)c1cn(CCCCc2cc3cc(Cc4ccccc4)[nH]c3nn2)nn1 [Example 65, 1-(4-{6-benzyl-7H-pyrrolo[2,3-c]pyridazin-3-yl}butyl)-N-(2-methylpropyl)-1H-1,2,3-triazole-4-carboxamide] | 5.30 to 6.30 | 6.30 to 7.00
19 | O=C(Nc1nnc(CCCCc2cc3cc[nH]c3nn2)s1)[C@@H](O)c1ccccc1 [Example 66, (2S)-2-hydroxy-2-phenyl-N-[5-(4-{7H-pyrrolo[2,3-c]pyridazin-3-yl}butyl)-1,3,4-thiadiazol-2-yl]acetamide] | 6.30 to 7.00 | 5.30 to 6.30
20 | COCCNC(=O)c1nnc(CCCCc2cc3cc(Cc4ccccc4)[nH]c3nn2)s1 [Example 67, 5-(4-{6-benzyl-7H-pyrrolo[2,3-c]pyridazin-3-yl}butyl)-N-(2-methoxyethyl)-1,3,4-thiadiazole-2-carboxamide] | 6.30 to 7.00 | 6.30 to 7.00
21 | O=C(NCCO)c1nnc(CCCCc2cc3cc(Cc4ccccc4)[nH]c3nn2)s1 [Example 68, 5-(4-{6-benzyl-7H-pyrrolo[2,3-c]pyridazin-3-yl}butyl)-N-(2-hydroxyethyl)-1,3,4-thiadiazole-2-carboxamide] | 5.30 to 6.30 | 5.30 to 6.30
22 | O=C(NCC1COC1)c1nnc(CCCCc2cc3cc(Cc4ccccc4)[nH]c3nn2)s1 [Example 69, 5-(4-{6-benzyl-7H-pyrrolo[2,3-c]pyridazin-3-yl}butyl)-N-(oxetan-3-ylmethyl)-1,3,4-thiadiazole-2-carboxamide] | 6.30 to 7.00 | 5.30 to 6.30
23 | CNC(=O)c1nnc(CCCCc2cc3cc(Cc4ccccc4)[nH]c3nn2)s1 [Example 70, 5-(4-{6-benzyl-7H-pyrrolo[2,3-c]pyridazin-3-yl}butyl)-N-methyl-1,3,4-thiadiazole-2-carboxamide] | 6.30 to 7.00 | 6.30 to 7.00
24 | O=C(NC1COC1)c1nnc(CCCCc2cc3cc(Cc4ccccc4)[nH]c3nn2)s1 [Example 72, 5-(4-{6-benzyl-7H-pyrrolo[2,3-c]pyridazin-3-yl}butyl)-N-(oxetan-3-yl)-1,3,4-thiadiazole-2-carboxamide] | 6.30 to 7.00 | < 5.30

Source: patent US20160002248A1, “GLS1 INHIBITORS FOR TREATING DISEASE” (Board of Regents, The University of Texas System, priority 2014, published 2016)
